Results from US9956319B2, “Compositions useful as antibiofilm or antimicrobial agents and methods using same” (BAYLOR COLLEGE OF MEDICINE, priority 2012, dated 2018).

Experiments:
MSSE = test: Zones of inhibition of impregnated catheter segments, modified Kirby-Bauer method; format: cell-based, Staphylococcus epidermidis
Protocol: (§1) To evaluate the antimicrobial activity of central venous catheters treated with α-lipoic acid or its combination with gentamicin, segments of 7 French triple lumen polyurethane central venous catheters were impregnated with α-lipoic acid, gentamicin, or the combination of lipoic acid and gentamicin using the same patented method described in Example 1 with 50 mg/ml of each agent (for the final solution volume). After the impregnation process and drying, zones of inhibition were performed on one-centimeter segments according to a modified Kirby-Bauer method against MSSE, MRSE, MRSA, K. pneumoniae, E. coli, P. mirabilis, Pseudomonas aeruginosa, and Candida albicans. Each segment was half embedded in the center of a Muller-Hinton agar plate that had been previously inoculated with an individual organism. Prior to placing the catheter segments in agar, each organism was grown for 18 hours in TSB to a concentration of 0.5 McFarland (10^8 cfu/ml). A cotton swab was placed in the suspension and streaked across the surface of the Muller-Hinton agar plate to cover the entire plate. All plates were placed in a 37° C. incubator for 24 hours. Zones were measured in mm after the incubation period (Table 2).
(§2) To evaluate the antimicrobial activity of central venous catheters treated with α-lipoic acid or its combination with doxycycline, segments of 7 French triple lumen polyurethane central venous catheters were impregnated with doxycycline or the combinations of α-lipoic acid and doxycycline using the same patented method described in Example 1 (U.S. Pat. No. 6,589,591) with 50 mg/ml of each agent (for the final solution volume). After the impregnation process and drying, zones of inhibition were performed on one-centimeter segments according to a modified Kirby-Bauer method against MSSE, MRSE, MRSA, K. pneumoniae, E. coli, P. aeruginosa, P. mirabilis, and C. albicans as described in Example 2. Zones of inhibition were measured in mm after the incubation period (Table 3).
(§3) To evaluate the antimicrobial activity of central venous catheters treated with lipoamide or its combination with levofloxacin, segments of 7 French triple lumen polyurethane central venous catheters were impregnated with levofloxacin or the combinations of lipoamide and levofloxacin using the same patented method described in Example 1 (U.S. Pat. No. 6,589,591) with 100 mg/ml (final solution volume) of each agent. After the impregnation process and drying, zones of inhibition were performed on one-centimeter segments according to a modified Kirby-Bauer method against MSSE, MRSE, MRSA, vancomycin-resistant Enterococcus (VRE), K. pneumoniae, E. coli, P. aeruginosa, P. mirabilis, and C. albicans as described in Example 2. Zones of inhibition were measured in mm after the incubation period (Table 4).
as §3, with “doxycycline,” for “levofloxacin,”, “doxycycline” for “levofloxacin”, “5).” for “4).”
(§4) To evaluate the antimicrobial activity of central venous catheters treated with dihydrolipoic acid, segments of 7 French triple lumen polyurethane central venous catheters were impregnated with dihydrolipoic acid using the same patented method described in Example 1 (U.S. Pat. No. 6,589,591) with 25 mg/ml (final solution volume) of the agent. […]

[1] = test system: vancomycin-resistant Enterococcus (VRE); test: as above; format: cell-based
Protocol: as §1
(§5) To evaluate the antimicrobial activity of central venous catheters treated with lipoamide or its combination with levofloxacin, segments of 7 French triple lumen polyurethane central venous catheters were impregnated with levofloxacin or the combinations of lipoamide and levofloxacin using the same patented method described in Example 1 (U.S. Pat. No. 6,589,591) with 100 mg/ml (final solution volume) of each agent. […] Zones of inhibition were measured in mm after the incubation period (Table 4).
as §5, with “doxycycline,” for “levofloxacin,”, “doxycycline” for “levofloxacin”, “5).” for “4).”
To evaluate the antimicrobial activity of central venous catheters treated with dihydrolipoic acid, segments of 7 French triple lumen polyurethane central venous catheters were impregnated with dihydrolipoic acid using the same patented method described in Example 1 (U.S. Pat. No. 6,589,591) with 25 mg/ml (final solution volume) of the agent. […] Zones of inhibition were measured in mm after the incubation period (Table 6).

Candida albicans = test: as above; format: cell-based
Protocol: as §1, §2, §3
as §3, with “doxycycline,” for “levofloxacin,”, “doxycycline” for “levofloxacin”, “5).” for “4).”
as §4

Escherichia coli [2] = test: as above; format: cell-based
Protocol: as §1, §2, §3
as §3, with “doxycycline,” for “levofloxacin,”, “doxycycline” for “levofloxacin”, “5).” for “4).”
as §4

Klebsiella pneumoniae II = test: as above; format: cell-based
Protocol: as §1, §2, §3
as §3, with “doxycycline,” for “levofloxacin,”, “doxycycline” for “levofloxacin”, “5).” for “4).”
as §4

Klebsiella pneumoniae I = test: as above; format: cell-based
Protocol: as §1, §2, §3
as §3, with “doxycycline,” for “levofloxacin,”, “doxycycline” for “levofloxacin”, “5).” for “4).”
as §4

Proteus mirabilis [3] = test: as above; format: cell-based
Protocol: as §1, §2, §3
as §3, with “doxycycline,” for “levofloxacin,”, “doxycycline” for “levofloxacin”, “5).” for “4).”
as §4

Pseudomonas aeruginosa = test: as above; format: cell-based
Protocol: as §1, §2, §3
as §3, with “doxycycline,” for “levofloxacin,”, “doxycycline” for “levofloxacin”, “5).” for “4).”
as §4

Escherichia coli [4] = test: Bacterial colony counts extracted from impregnated central venous catheters after incubation in bacterial suspension; format: cell-based; details: catheter impregnated with 50 mg/ml, 10^5 cfu/ml suspension in TSB, 37° C., 24 hours
Protocol: (§6) In this example, segments of 7 French triple lumen polyurethane central venous catheters were impregnated with α-lipoic acid using the method described elsewhere (U.S. Pat. No. 6,589,591) and were subjected to zones of inhibition. Briefly, α-lipoic acid was dissolved in 88% formic acid (at a final solution concentration of 50 mg/ml). 85% ortho-Phosphoric acid and glycerol were then added to the solution at 79:8:13 (v/v/v) (formic acid:ortho-phosphoric acid:glycerol). After mixing the solution, 300 mg/ml of potassium chloride was added to the final solution and mixed.
(§7) Catheter segments were then placed in the impregnating solution at 55° C. with agitation for 1 hour in the dark. Catheter segments were then removed from the solution and dried under a fume hood overnight in the dark. Catheter segments were rinsed with deionized water the next day and let dry for another 18 hours in the dark. After the impregnation process and drying, one-centimeter segments of impregnated catheters were individually placed in 1 ml of 10^5 cfu/ml suspensions of methicillin-sensitive Staphylococcus epidermidis (MSSE), methicillin-resistant Staphylococcus epidermidis (MRSE), methicillin-resistant Staphylococcus aureus (MRSA), Klebsiella pneumoniae, Escherichia coli, or Proteus mirabilis in trypticase soy broth (TSB) at 37° C. for 24 hours. One-centimeter segments of non-impregnated catheters were also incubated individually in each bacterial suspension at 37° C. for 24 hours as controls. Catheter segments were removed from each bacterial suspension after this period, shaken to remove excess broth containing free-floating bacteria from their surfaces, placed in 1 ml of normal saline, sonicated for 5 minutes, and vortexed for 30 seconds.
(§8) Aliquots of each suspension and subsequent dilutions were cultured quantitatively.

Proteus mirabilis [5] = test: as above; format: cell-based; details: catheter impregnated with 50 mg/ml, 10^5 cfu/ml suspension in TSB, 37° C., 24 hours
Protocol: as §6, §7, §8

[6] = test system: methicillin-sensitive Staphylococcus epidermidis (MSSE); test: as above; format: cell-based; details: catheter impregnated with 50 mg/ml, 10^5 cfu/ml suspension in TSB, 37° C., 24 hours
Protocol: as §6, §7, §8

Klebsielle pneuminiae II = test: as above; format: cell-based, Klebsiella pneumoniae; details: catheter impregnated with 50 mg/ml, 10^5 cfu/ml suspension in TSB, 37° C., 24 hours
Protocol: as §6
Catheter segments were then placed in the impregnating solution at 55° C. with agitation for 1 hour in the dark. Catheter segments were then removed from the solution and dried under a fume hood overnight in the dark. Catheter segments were rinsed with deionized water the next day and let dry for another 18 hours in the dark. […]
as §8

[7] = catheter impregnated with 100 mg/ml of each agent
[8] = catheter impregnated with 25 mg/ml of the agent
[9] = catheter impregnated with 50 mg/ml of each agent, 37° C., 24 hours

Question: How did the zone of inhibition at 100000 µg/mL (MSSE; Staphylococcus epidermidis, catheter impregnated with 100 mg/ml of each agent) turn out when `NC(=O)CCCCC1CCSS1` (stereo not drawn) [Lipoamide, lipoamide] was run?
Answer: 24 mm

Question: And the zone of inhibition at 100000 µg/mL ([1]; Enterococcus, catheter impregnated with 100 mg/ml of each agent)?
Answer: 4 mm

Question: And the zone of inhibition at 100000 µg/mL (Candida albicans; [7])?
Answer: 6 mm

Question: What about the zone of inhibition at 100000 µg/mL (Escherichia coli [2]; [7]) of the same compound?
Answer: 10 mm

Question: And the zone of inhibition at 100000 µg/mL (Klebsiella pneumoniae II; Klebsiella pneumoniae II, catheter impregnated with 100 mg/ml of each agent)?
Answer: 13 mm

Question: What about the zone of inhibition at 100000 µg/mL (Klebsiella pneumoniae I; [7]) of the same compound?
Answer: 12 mm

Question: And the zone of inhibition at 100000 µg/mL (Proteus mirabilis [3]; [7])?
Answer: 13 mm

Question: What about the zone of inhibition at 100000 µg/mL (Pseudomonas aeruginosa; Pseudomonas aeruginosa, Pseudomonas aeroginosa, catheter impregnated with 100 mg/ml of each agent) of the same compound?
Answer: 18 mm

Question: Which results are given for `O=C(O)CCCCC(S)CCS` (stereo not drawn) [Dihydrolipoic acid, 6,8-dimercaptooctanoic acid]?
Answer: Zones of inhibition (MSSE; [8]): 25 mm; Zones of inhibition [1, 8]: 14 mm; Zones of inhibition (Candida albicans; [8]): 13 mm; Zones of inhibition (Escherichia coli [2]; [8]): 0 mm; Zones of inhibition (Klebsiella pneumoniae II; Klebsiella pneumoniae II, catheter impregnated with 25 mg/ml of the agent): 0 mm; Zones of inhibition (Klebsiella pneumoniae I; [8]): 0 mm; Zones of inhibition (Proteus mirabilis [3]; [8]): 0 mm; Zones of inhibition (Pseudomonas aeruginosa; Pseudomonas aeroginosa, catheter impregnated with 25 mg/ml of the agent): 11 mm

Question: Which “Bacterial colony counts extracted from central venous catheters” value (“Bacterial colony counts extracted” below) (Escherichia coli [4]) does the source give for `O=C(O)CCCCC1CCSS1` (stereo not drawn) [Lipoic acid, 1,2-dithiolane-3-pentanoic acid] here?
Answer: 1.4 × 10^4

Question: And the “Bacterial colony counts extracted” value (Proteus mirabilis [5])?
Answer: 0

Question: And the “Bacterial colony counts extracted” value [6]?
Answer: 10

Question: And the “Bacterial colony counts extracted” value (Klebsielle pneuminiae II)?
Answer: 9.0 × 10^3

Question: What about the zone of inhibition at 50000 µg/mL (MSSE; Staphylococcus epidermidis, catheter impregnated with 50 mg/ml of each agent, 37° C., 24 hours) of the same compound?
Answer: 32 mm

Question: What about the zone of inhibition at 50000 µg/mL (Candida albicans; [9]) of the same compound?
Answer: 10 mm

Question: And the zone of inhibition at 50000 µg/mL (Escherichia coli [2]; [9])?
Answer: 12 mm

Question: What about the zone of inhibition at 50000 µg/mL (Klebsiella pneumoniae II; Klebsiella pneumoniae, Klebsielle pneuminiae II, catheter impregnated with 50 mg/ml of each agent, 37° C., 24 hours) of the same compound?
Answer: 18 mm

Question: What about the zone of inhibition at 50000 µg/mL (Klebsiella pneumoniae I; [9]) of the same compound?
Answer: 20 mm

Question: What about the zone of inhibition at 50000 µg/mL (Proteus mirabilis [3]; [9]) of the same compound?
Answer: 12 mm

Question: What about the zone of inhibition at 50000 µg/mL (Pseudomonas aeruginosa; Pseudomonas aeruginosa, catheter impregnated with 50 mg/ml of each agent, 37° C., 24 hours) of the same compound?
Answer: 5 mm
